Data taken from publication PMC5081515 (Scientific Reports, 2016).
Like-named read-outs stand apart in the source and are kept apart here.

What was measured:
TbrHGPRT [1] = molecular target: T1, TbrHGPRT (Trypanosoma brucei brucei, UniProt Q07010); assay: Inhibition studies, Ki determination
Human HGPRT [2] = molecular target: Human HGPRT; parameters: method as in Cesnek et al. 19; Keough et al. 18; conditions: ref Cesnek et al. 19, Keough et al. 18; cited from earlier work
TcrHGPRT = system: TcrHGPRT; parameters: method as in Canyuk et al. 43; Allen & Ullman 54; conditions: cited from earlier work
Human HGPRT [3] = system: Human HGPRT; parameters: method as in de Jersey et al. 10; conditions: cited from earlier work
TbrHGPRT [4] = molecular target: T1, TbrHGPRT; assay: Kinetic constants of naturally occurring substrates, continuous spectrophotometric assay; assay type: biochemical; parameters: made in house; host or cells: E. coli BL-21 (DE3), pET-22b
Description: One unit of activity is defined as the number of μmol of purine base converted to its mononucleotide product per minute.
The kinetic constants were calculated using GraphPad Prism 6.0.

TbrHGPRT [5] = molecular target: T1, TbrHGPRT; assay: Standard enzyme activity assay with ammonium sulphate added; assay type: biochemical; parameters: made in house; host or cells: E. coli BL-21 (DE3), pET-22b; conditions: 2M ammonium sulphate added to the cuvette
[6] = ref Canyuk et al. 43, Allen & Ullman 54, read-out: Km
[7] = ref Canyuk et al. 43, Allen & Ullman 54
[8] = ref de Jersey et al. 10, read-out: Km

T1 sequence (Q07010 whole entry): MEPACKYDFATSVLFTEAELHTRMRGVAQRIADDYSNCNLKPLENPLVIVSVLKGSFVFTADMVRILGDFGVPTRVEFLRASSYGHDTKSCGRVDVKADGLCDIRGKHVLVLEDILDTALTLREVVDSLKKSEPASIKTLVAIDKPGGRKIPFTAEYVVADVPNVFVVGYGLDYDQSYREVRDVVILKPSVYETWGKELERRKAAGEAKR

For `Nc1nc2c(ncn2CCCCP(=O)(O)O)c(=O)[nH]1` [Compound 1], the Ki (TbrHGPRT [1]) is given as 23.7 ± 0.3 µM and the Ki (Human HGPRT [2]) is given as 21 µM.

In the case of `Nc1nc2c(ncn2CCCCCP(=O)(O)O)c(=O)[nH]1` [Compound 2], the Ki (TbrHGPRT [1]) is given as 2.3 ± 0.1 µM and the Ki (Human HGPRT [2]) is given as 0.5 µM.

For `Nc1nc2c(ncn2CCCCCCP(=O)(O)O)c(=O)[nH]1` [Compound 3], the Ki (TbrHGPRT [1]) is listed as 21.3 ± 0.4 µM and the Ki (Human HGPRT [2]) is listed as 0.5 µM.

For `O=c1[nH]cnc2c1ncn2CCCP(=O)(O)O` [Compound 4], the Ki (TbrHGPRT [1]) is listed as > 100 µM and the Ki (Human HGPRT [2]) is listed as > 100 µM.

For `O=c1[nH]cnc2c1ncn2CCCCP(=O)(O)O` [Compound 5], the Ki (TbrHGPRT [1]) is listed as 58.6 ± 4 µM and the Ki (Human HGPRT [2]) is listed as > 100 µM.

For `O=c1[nH]cnc2c1ncn2CCCCCP(=O)(O)O` [Compound 6], the Ki (TbrHGPRT [1]) is given as 15.8 ± 1.8 µM and the Ki (Human HGPRT [2]) is given as > 100 µM.

For `O=c1[nH]cnc2c1ncn2CCCCCCP(=O)(O)O` [Compound 7], the Ki (TbrHGPRT [1]) is given as > 100 µM and the Ki (Human HGPRT [2]) is given as 77 µM.

With `Nc1nc2c(ncn2[C@@H]2O[C@H](COP(=O)(O)O)[C@@H](O)[C@H]2O)c(=O)[nH]1` [GMP, reference compound] the Ki (TbrHGPRT [1]; 0.03 M phosphate, […] MgCl2, 1 mM DTT, pH 7.4, 25 °C, guanine 40 μM, PRib-PP varied 20 to 630 μM) was 30.5 ± 1.5 µM, the “Ki for GMP, fold lower than for IMP” value (TbrHGPRT [1]; TbrHGPRT) was 2.5 fold and the “Ki for TbrHGPRT, fold higher than for human HGPRT” value (TbrHGPRT [1]; TbrHGPRT vs human HGPRT) was 5 fold. For the same compound, the Ki (Human HGPRT [2]) was 5.8 ± 0.2 µM.

In the case of `Nc1nc2nc[nH]c2c(=O)[nH]1` [Guanine], the Km (TcrHGPRT; [6]) is given as 9.9 ± 0.29 µM, the kcat (TcrHGPRT; [7]) is given as 41.2 ± 2.9 s⁻¹ and the Km (Human HGPRT [3]; [8]) is given as 1.9 ± 0.4 µM. The kcat (Human HGPRT [3]; ref de Jersey et al. 10) was 8.2 ± 0.6 s⁻¹.

For `O=c1[nH]cnc2nc[nH]c12` [Hypoxanthine], the Km (TcrHGPRT; [6]) is given as 8.6 ± 1 µM, the kcat (TcrHGPRT; [7]) is given as 23 s⁻¹ and the “Km, fold higher than for guanine” value (TbrHGPRT [4]; TbrHGPRT) is given as 2 fold. For the same compound, the Km (Human HGPRT [3]; [8]) was 3.4 ± 1 µM and the kcat (Human HGPRT [3]; ref de Jersey et al. 10) was 5.2 ± 0.4 s⁻¹.

In the case of `O=P(O)(O)OC[C@H]1O[C@H](OP(=O)(O)OP(=O)(O)O)[C@H](O)[C@@H]1O` [PRib-PP], the Km (TcrHGPRT; [6]) is given as 32.4 ± 3.1 µM and the Km (Human HGPRT [3]; [8]) is given as 59.6 ± 6 µM.

For `O=c1[nH]c(=O)c2nc[nH]c2[nH]1` [Xanthine], the Km (TcrHGPRT; [7]) is given as “No activity reported”, the kcat (TcrHGPRT; [7]) is given as “No activity reported” and the kcat (TbrHGPRT [4]; 0.03 M phosphate buffer, […] MgCl2, 1 mM DTT, pH 7.4, 25 °C) is given as “Weak activity”. For the same compound, the Km (TbrHGPRT [4]; 0.03 M phosphate buffer, […] MgCl2, 1 mM DTT, pH 7.4, 25 °C, bases at 500 μM PRib-PP, PRib-PP at 40 μM guanine) was “Weak activity”, the “activity as a substrate” value (TbrHGPRT [4]; TbrHGPRT) was “only very weak activity” and the Km (Human HGPRT [3]; ref de Jersey et al. 10) was “Not a substrate”. For the same compound, the kcat (Human HGPRT [3]; ref de Jersey et al. 10) was “Not a substrate”.

With `N.N.O=S(=O)(O)O` [sulphate, ammonium sulphate] the inhibition (TbrHGPRT [5]) was 25%.
